Laboratory results reported in ChEMBL document CHEMBL1201862, “PubChem BioAssay data set” (2004).
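Briefly, cells in 96-well plates were exposed to five compound concentrations for 48 h, and endpoints were estimated by linear interpolation. The concentration for 50% growth inhibition is given as GI50.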 The source made the active and inactive calls. Rule as the data show it: active = GI50 up to about 1.1 µM and inactive = higher.

Legend:
Assay in all cases: growth of human tumour cells (NCI), 48 h
[1] = test system: M19-MEL
[2] = test system: DLD-1
[3] = test system: LXFL 529
[4] = test system: HOP-18
[5] = test system: SNB-78
[6] = test system: XF498
[7] = test system: DMS-114
[8] = test system: DMS-273
[9] = test system: RXF 631

SMILES | GI50 [1] | GI50 [2] | GI50 [3] | GI50 [4] | GI50 [5] | GI50 [6] | GI50 [7] | GI50 [8] | GI50 [9]
COc1ccc(N2C(=O)C3CC(c4ccc(C)cc4)c4c([nH]c5ccccc45)C3C2=O)cc1 (stereo unspecified) | > 75.9 µM (inactive) | 38.6 µM (inactive) | 28.7 µM (inactive) | 2.88 µM (inactive) | > 51.4 µM (inactive) | 27.2 µM (inactive) | > 49.7 µM (inactive) | 24.1 µM (inactive) | 
Cc1ccccc1N(CCC#N)C1=NN(C(=O)CC(=O)Nc2ccccc2)C(c2ccccc2)C1 (stereo unspecified) | > 100 µM (inactive) | > 100 µM (inactive) | > 100 µM (inactive) | > 100 µM (inactive) | 67.9 µM (inactive) |  |  | > 100 µM (inactive) | > 100 µM (inactive)
Cc1ccc(S(=O)(=O)C(CC(NC=O)S(=O)(=O)c2ccc(C)cc2)NC=O)cc1 (stereo unspecified) | > 100 µM (inactive) | > 100 µM (inactive) | > 100 µM (inactive) |  | > 100 µM (inactive) | > 100 µM (inactive) | > 100 µM (inactive) | > 100 µM (inactive) | > 100 µM (inactive)
COc1cc2oc(-c3ccccc3)cc(=O)c2c(O)c1C | > 100 µM (inactive) | > 100 µM (inactive) | > 100 µM (inactive) |  | > 100 µM (inactive) |  | > 100 µM (inactive) | > 100 µM (inactive) | 
COc1ccc(/C=C2\CCC(C)(CN(C)C)C2=O)cc1 (stereo unspecified) | > 100 µM (inactive) | > 100 µM (inactive) | > 100 µM (inactive) | > 100 µM (inactive) | > 100 µM (inactive) | > 100 µM (inactive) | 76 µM (inactive) | > 100 µM (inactive) | 40.4 µM (inactive)
N=C(N)NCCCCCCC(=O)NC(O)C(=O)NCCCCNCCCN (stereo unspecified) | 719 µM (inactive) | 723 µM (inactive) |  | 710 µM (inactive) | > 750 µM (inactive) | 100 µM (inactive) | 69.2 µM (inactive) | > 750 µM (inactive) | 
C=C(C)[C@@H]1CC[C@]2(C)CC[C@]3(C)[C@H](CC[C@@H]4[C@@]5(C)CC[C@H](O)C(C)(C)[C@@H]5CC[C@]43C)[C@@H]12 [LUPEOL] | > 100 µM (inactive) | > 100 µM (inactive) | > 100 µM (inactive) |  |  | > 100 µM (inactive) | 65.8 µM (inactive) | > 100 µM (inactive) | 
CCCCOC(=O)C1C(c2ccc(Cl)cc2)NC(c2ccc(Cl)cc2)C(C(=O)OCCCC)S1(=O)=O (stereo unspecified) | > 100 µM (inactive) | > 100 µM (inactive) | 69.8 µM (inactive) | > 100 µM (inactive) |  | > 100 µM (inactive) | > 100 µM (inactive) | > 100 µM (inactive) | 
c1ccc2cc(C3NCCc4nc[nH]c43)ccc2c1 (stereo unspecified) | 29.9 µM (inactive) | 62.2 µM (inactive) | 54.2 µM (inactive) | 47 µM (inactive) | > 100 µM (inactive) |  | 35.6 µM (inactive) | 69.2 µM (inactive) | 
CCc1ccccc1NC(=O)C1=C(C)NC(C)=C(C(=O)Nc2c(CC)cccc2CC)C1c1ccc2c(c1)OCO2 (stereo unspecified) | 22.1 µM (inactive) | 21.9 µM (inactive) | 17 µM (inactive) |  | 26.9 µM (inactive) | 28.4 µM (inactive) | 20.2 µM (inactive) |  | 
Cc1ccc(-c2cc(=O)c3cc(C)c(C)c(C(=O)O)c3o2)cc1 | > 100 µM (inactive) | > 100 µM (inactive) | > 100 µM (inactive) |  | > 100 µM (inactive) | > 100 µM (inactive) | > 100 µM (inactive) | > 100 µM (inactive) | > 100 µM (inactive)
NC(=O)N/N=C(/c1nc2ccc([N+](=O)[O-])cc2nc1O)C(O)c1ccco1 (stereo unspecified) | 79.8 µM (inactive) | > 100 µM (inactive) | 36.8 µM (inactive) |  | > 100 µM (inactive) | > 100 µM (inactive) | 28.8 µM (inactive) | 20.5 µM (inactive) | 48.2 µM (inactive)
CCOC(C/N=c1/nc(N(C)C)ss1)OCC | 0.504 µM (active) | 16.4 µM (inactive) | 0.489 µM (active) | > 66.4 µM (inactive) | 24.6 µM (inactive) | 15 µM (inactive) | 18 µM (inactive) | 23 µM (inactive) | 18.4 µM (inactive)
O=C(c1ccccc1)c1c(CNCc2ccccc2)n(C(=O)c2ccccc2)c2ccccc12 | 92.3 µM (inactive) | 35.4 µM (inactive) | 30.4 µM (inactive) |  |  | > 100 µM (inactive) | 21.2 µM (inactive) | 47.1 µM (inactive) | 
Cc1cc2c(C)nn(Cc3ccccc3Cl)c2c(C#N)c1C | > 100 µM (inactive) | > 100 µM (inactive) | > 100 µM (inactive) | > 100 µM (inactive) |  | > 100 µM (inactive) |  | > 100 µM (inactive) | > 100 µM (inactive)
NNC(=O)N/N=C1\C(=O)N(c2ccc(Cl)c(Cl)c2)C(=O)C(=O)C1c1nc2ccccc2s1 (stereo unspecified) |  | > 100 µM (inactive) | > 100 µM (inactive) | > 100 µM (inactive) | > 100 µM (inactive) | > 100 µM (inactive) | > 100 µM (inactive) | > 100 µM (inactive) | 
CCOC1=C2N=C(C(CC)c3ccccc3F)N=C2C(=O)c2ccccc21 (stereo unspecified) | > 100 µM (inactive) |  | > 100 µM (inactive) |  |  |  | > 100 µM (inactive) | > 100 µM (inactive) | > 100 µM (inactive)
NCC(NC(=O)OCc1ccccc1)C(=O)O (stereo unspecified) | > 50 µM (inactive) | > 50 µM (inactive) | > 50 µM (inactive) | > 50 µM (inactive) | > 50 µM (inactive) |  | > 50 µM (inactive) | > 50 µM (inactive) | 
C/C=C/C#CC#C/C=C/C=C/C(O)CCO (stereo unspecified) | > 23.1 µM (inactive) | > 23.1 µM (inactive) | > 23.1 µM (inactive) | > 23.1 µM (inactive) | > 23.1 µM (inactive) | > 23.1 µM (inactive) | > 23.1 µM (inactive) | > 23.1 µM (inactive) | 
CCCCCCCCCCCCCCCC(=O)Nc1ccn(C2OC(CO)C(O)C2O)c(=O)n1 (stereo unspecified) | 13.1 µM (inactive) | > 54.7 µM (inactive) | 39.5 µM (inactive) | 21.4 µM (inactive) | > 100 µM (inactive) |  | 4.89 µM (inactive) | 5.66 µM (inactive) | 
CSc1nnc(C(C#N)C#N)nn1 | > 100 µM (inactive) | > 100 µM (inactive) | > 100 µM (inactive) |  | > 100 µM (inactive) | > 100 µM (inactive) | > 100 µM (inactive) | > 100 µM (inactive) | > 100 µM (inactive)
CC(=O)Nc1ccc(C(=O)NN2C(=O)C(Cl)C2c2ccccc2O)cc1 (stereo unspecified) |  | > 100 µM (inactive) | > 100 µM (inactive) |  |  | 28.1 µM (inactive) |  | 99.1 µM (inactive) | 
COc1c(O)ccc(/C=N/NC(=S)NCOCCOC(C)=O)c1OC | > 100 µM (inactive) | > 100 µM (inactive) | > 100 µM (inactive) | > 100 µM (inactive) | > 100 µM (inactive) | > 100 µM (inactive) | > 100 µM (inactive) | > 100 µM (inactive) | > 100 µM (inactive)
COc1cc2c(c(OC)c1OC)-c1ccc(SC)c(=O)cc1[C@@H](NCc1ccc([N+](=O)[O-])cc1)CC2 | 0.00379 µM (active) | 0.00402 µM (active) | 0.00635 µM (active) |  | 0.00904 µM (active) | 0.00899 µM (active) | 0.00253 µM (active) | 0.00288 µM (active) | 
Cc1ccccc1C1OC(=O)c2ccccc21 (stereo unspecified) | > 100 µM (inactive) | > 100 µM (inactive) | > 100 µM (inactive) | > 100 µM (inactive) | > 100 µM (inactive) |  | > 100 µM (inactive) | > 100 µM (inactive) | > 100 µM (inactive)
Cc1ccc(/C=C2\CCCC(C(NO)c3ccc(C)cc3)C2=NO)cc1 (stereo unspecified) | 69.5 µM (inactive) | 28 µM (inactive) | 61.7 µM (inactive) | 11.4 µM (inactive) | 60 µM (inactive) | 43.7 µM (inactive) | 30.3 µM (inactive) | 42 µM (inactive) | 27.4 µM (inactive)
CN1NC2(CCCCC2)ON=C1c1ccccc1 |  | > 100 µM (inactive) |  | > 100 µM (inactive) | > 100 µM (inactive) |  | > 100 µM (inactive) |  | 
N=C1OC(c2ccc3c(c2)OCO3)C(NNS(=O)(=O)c2ccccc2)=C1O (stereo unspecified) | 30.4 µM (inactive) | > 100 µM (inactive) | 58.2 µM (inactive) | > 100 µM (inactive) | > 100 µM (inactive) |  | > 100 µM (inactive) | > 100 µM (inactive) | 
CC(=O)OC1CC2(C)OC(Cc3ccccc32)O1 (stereo unspecified) | > 100 µM (inactive) | > 100 µM (inactive) |  | > 100 µM (inactive) | > 100 µM (inactive) | > 100 µM (inactive) | > 100 µM (inactive) | > 100 µM (inactive) | 
